{"source": "patent US20080026076A1", "about": "(priority 2003, published 2008)", "key": {"[1]": {"system": "Akt", "test": "Akt signaling status in left ventricle, immunoblot", "type": "in vivo, rat", "conditions": "AAC rats fed supplemental quercetin", "procedure": "Determination of ERK1/2 and Akt signaling status (FIGS. 4A & 4B). All extraction procedures were performed at 4° C. […] After homogenization, the samples were sonicated twice on ice and centrifuged at 11,000×g for 10 min. at 4° C. Supernatants were recovered and stored at −80° C. for subsequent immunoblotting. Protein concentration of whole heart cell lysate was determined using a Bio-Rad Protein assay (Bio-Rad, Hercules, Calif.) with bovine serum albumin (BSA) as a standard."}, "[2]": {"system": "spontaneously hypertensive rats", "test": "Blood pressure in spontaneously hypertensive (SH) rats", "type": "in vivo, rat", "procedure": "As described herein, this strain is well documented to have normal blood pressure until about 5-6 weeks of age (Makita and Yasuda, 1990). After about 5-6 weeks, the rats suffer from steadily increasing blood pressure from about 6 weeks of age until peaking at about 12-15 weeks of age.\nBlood pressure was measured in SHR and SHRQ rats by lightly anesthetizing the animals using ketamine/xylazine (75/3.75 mg/kg i.p.). Rats were prewarmed for 15 minutes on heated platform and blood pressure was measured using a Visitech BP 2000 blood pressure system. Pressure measurements are reported as the average of between 4 and 8 separate measurements taken over a 70 second period. All rats fully recovered within […] after receiving anesthesia.\nBlood pressure blood pressure was measured for each group at 6, 7.5, 9 and 10 weeks. Dietary supplement was initiated at 5 weeks and maintained throughout the experiment.\nIn a separate experiment using SH rats (dietary supplement was likewise initiated at 5 weeks), blood pressure was measured at 17 weeks."}, "[3]": {"conditions": "1.5 g/kg chow quercetin from 5 weeks of age, measured at 6 to 10 weeks, vs control diet"}}}
{"smiles": "O=c1c(O)c(-c2ccc(O)c(O)c2)oc2cc(O)cc(O)c12", "note": "[quercetin, 3,5,7,3′,4′-pentahydroxyflavone]", "values": [{"measurement": "activation of Akt", "setting": "[1]", "value": "prevented"}, {"measurement": "onset of hypertension", "setting": "[2]; 1.5 g quercetin/kg diet from 5 weeks of age", "value": "delayed the onset of hypertension"}, {"measurement": "diastolic pressure", "setting": "[2]; [3]", "value": "did not show a statistically significant changed"}, {"measurement": "mean arterial pressure", "setting": "[2]; [3]", "value": "did not show a statistically significant changed"}, {"measurement": "systolic blood pressure", "setting": "[2]; [3]", "value": "decreased systolic blood pressure"}, {"measurement": "blood pressure at 17 weeks", "setting": "[2]; separate experiment, supplement from 5 weeks, control vs quercetin treated", "value": "No significant difference in blood pressure"}]}
